Data published in patent US20140121216A1, “INDOLEAMINE DERIVATIVES FOR THE TREATMENT OF CENTRAL NERVOUS SYSTEM DISEASES” (Adamed Sp. z o.o., priority 2011, published 2014).

What was measured:
[1] = target: 5-HT2A receptor, human recombinant (Homo sapiens, UniProt P28223); experiment: Binding assay, 5-HT2A receptor ([3H]ketanserin)
Method: Moreover, ability of the compounds of the invention to block potassium channel hERG was tested.
The specific ligand binding to the receptors is defined as the difference between the total binding and the non-specific binding determined in the presence of an excess of unlabelled ligand.
The inhibition constants (Ki) were calculated using the Cheng Prusoff equation (Ki=IC50/(1+(L/KD)), where L=concentration of radioligand in the assay, and KD=affinity of the radioligand for the receptor). A Scatchard plot is used to determine the Kd. The IC50 values (concentration causing a half-maximal inhibition of control specific binding) and Hill coefficients (nH) were determined by non-linear regression analysis of the competition curves generated with mean replicate values using Hill equation curve fitting (Y=D+[(A−D)/(1+(C/C50)^nH)], where Y=specific binding, D=minimum specific binding, A=maximum specific binding, C=compound concentration, C50=IC50, and nH=slope factor).

Swiss albino mice = experiment: Four-plate test in Swiss albino mice; type: in vivo
Method: Within 24 h prior to testing, animals were habituated to experimental conditions. For this purpose mice in home cages were transferred to the experimental room for 15 min., while maintaining the lighting and the “white noise” characteristic for the experiment.
The four-plate test (BIOSEB, France) was performed in a cage (25×18×16 cm) floored by four identical rectangular metal plates (8×11 cm) separated from one another by a gap of 4 mm. The top of the cage was covered by a transparent Perspex lid that prevented escape behaviour. The plates were connected to a device that generated electric shocks. Animals were placed individually in the experimental cage and following a 15-s habituation period, the animal's motivation to explore a novel environment was suppressed by an electric foot shock (0.8 mA, 0.5 s) every time it moved from one plate is to another during a 1-minute test session. This action is referred to as a ‘punished crossing’, and was followed by a 3 s shock interval, during which the animal could move across plates without receiving a shock. The measure of anxiolytic activity of the compound was the number of ‘punished crossings’ from one plate to the adjacent during 1-min test period.

5-HT2A receptor, human recombinant, sequence (P28223 whole entry, looked up): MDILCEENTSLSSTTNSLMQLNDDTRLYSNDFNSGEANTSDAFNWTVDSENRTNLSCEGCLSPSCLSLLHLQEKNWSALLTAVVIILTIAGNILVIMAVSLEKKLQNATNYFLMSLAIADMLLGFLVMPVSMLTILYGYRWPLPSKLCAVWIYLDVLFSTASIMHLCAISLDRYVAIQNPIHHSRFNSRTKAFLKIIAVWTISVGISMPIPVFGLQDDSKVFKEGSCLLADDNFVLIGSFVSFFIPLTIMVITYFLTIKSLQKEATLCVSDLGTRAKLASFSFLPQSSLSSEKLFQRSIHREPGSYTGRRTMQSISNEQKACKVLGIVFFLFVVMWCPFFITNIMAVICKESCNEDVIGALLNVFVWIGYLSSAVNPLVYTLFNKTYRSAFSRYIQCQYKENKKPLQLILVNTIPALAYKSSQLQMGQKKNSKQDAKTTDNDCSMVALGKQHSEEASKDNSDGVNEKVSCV

O=C1CCc2ccc(OCCCCN3CCN(c4cccc5c4ccn5Cc4cccc(Cl)c4)CC3)cc2N1 [Compound 67, 7-[4-[4-[1-[(3-Chlorophenyl)methyl]indol-4-yl]piperazin-1-yl]butoxy]-3,4-dihydro-1H-quinolin-2-one]
Ki [1]: 2.4 nM

O=C1CCc2ccc(OCCCCN3CCN(c4cccc5c4ccn5S(=O)(=O)c4ccccc4)CC3)cc2N1 [Compound 24, 7-(4-(4-(1-(Phenylsulphonyl)-1H-indol-4-yl)piperazin-1-yl)butoxy)-3,4-dihydroquinolin-2(1H)-one]
MED (minimum effective dose), four-plate test (Swiss albino mice; Swiss albino mice): 5 mg/kg | activity in words, four-plate test (Swiss albino mice; mice): active
